Test results: PMC11574108, “4-Furanylvinylquinoline derivative as a new scaffold for the design of oxidative stress initiator and glucose transporter inhibitor drugs” (Scientific Reports, 2024)

Key:
p21 = experiment: Western blot, p21 protein level; assay type: cell-based, human; details: HCT 116 p53+/+, 0.5 and 1 µM, 24 and 48-h
Procedure: The cells (500,000) were seeded in 35 mm Petri dishes (Nunc) and incubated in a solution of the tested compound (0.5 µM and 1 µM) for 24 h and 48 h. The cells were then dissociated using trypsin, collected in Eppendorf tubes, and centrifuged at 2,000 rpm. Next, cell pellets were resuspended in complete RIPA buffer containing a Halt Protease Inhibitor Cocktail and Halt Phosphatase Inhibitor Cocktail along with 0.5 M EDTA (all reagents from Thermo Fisher Scientific) and lysed on ice for 20 min. Afterward, the lysates were sonicated and centrifuged at 10,000 rpm for 10 min at 4 °C. The obtained supernatants were collected for further analysis. The protein concentration was determined using a Micro BCA™ Protein Assay Kit (Thermo Fisher Scientific) according to the manufacturer’s procedure. Equal amounts of proteins (16 µg) were electrophoresed on SDS-Page gels and transferred onto nitrocellulose membranes. Novex Sharp Pre-Stained Protein Standard (Thermo Fisher Scientific) was used as a colored molecular weight marker. […]
The overexpression of p21 also causes cell cycle inhibition via its binding to the […]. […] The cell cycle in the U-251 cell line was inhibited precisely in the S-phase, and it is, therefore, likely that the p21 protein expression was not detected in the glioma cells tested (data not shown).

U-251 = experiment: Monolayer antiproliferative MTS assay; assay type: cell-based, human; details: 2D monolayer; for IC50: MTS, 72-h incubation
From the text: (§1) The human colon carcinoma cell line HCT 116 with wild-type p53 (p53^+/+) and the human glioblastoma cell line U-251 were obtained from ATCC, while the HCT 116 with a p53 deletion (p53^−/−) was kindly provided by Prof. M. Rusin from the Maria Sklodowska-Curie Memorial Cancer Center and Institute of Oncology in Gliwice, Poland. The human chronic myelogenous leukaemia cell line K562 and the normal human cell dermal fibroblast cell line NHDF were purchased from Sigma-Aldrich and PromoCell, respectively. Both the HCT 116 and U-251 cell lines were cultured in Dulbecco’s modified Eagle’s medium (DMEM) supplemented with 10% inactivated foetal bovine serum (FBS). The DMEM for the NHDF contained 15% non-inactivated FBS. K562 cells were cultured in RPMI medium completed by 10% inactivated FBS. Additionally, the media were supplemented with antibiotics (streptomycin and penicillin – 1% v/v; Sigma-Aldrich). The cell culture was conducted in 75 cm^2 flasks (Nunc) under standard conditions (37 °C, 5% CO2 humidified atmosphere). Furthermore, the cell lines were frequently tested for mycoplasma using the qRT-PCR technique with specific Mycoplasma primers to confirm the lack of contamination.
(§2) The cells were seeded in 96-well plates (Nunc) with 5,000 or 4,000 cells per well for the cancer cells and NHDF, respectively, and incubated under standard conditions at 37 °C overnight. The culture media were then changed for freshly prepared solutions of the tested compounds in various concentrations. After 72-h incubation the antiproliferative assay was carried out as follows: the solutions of the compounds were changed in each well to 100 µL DMEM without phenol red and 20 µL of CellTiter 96 AQueous One Solution-MTS (Promega). The plates were incubated for 1 h at 37 °C, and the absorbance was then measured at 490 nm using a multi-plate reader (Synergy 4, BioTek). The experiment for each sample was repeated at least three times. The results are presented as the half-maximal inhibitory concentration (IC50) values, which were estimated in comparison to untreated cells (control) and calculated using GraphPad Prism v.8.0 (USA).
(§3) However, the antiproliferative activity of derivative 13 with furan a ring was surprising. […] For this purpose, we selected two pancreatic cancer cell lines: AsPC-1, which is characterised by a deletion of the p53 protein[20] and PANC-1, which carries an R273H mutation. This mutation also occurred in the glioblastoma U-251 cell line[22],[23]. An additional non-adherent line that carries the TP53 mutation that results in the absence of p53 is the K562 leukemic cell line[24]. […] Moreover, 13 was selective toward […], as indicated by its SI values (3.35–9.41). Among all of the tested cell lines, the highest activity of the compound was found against the HCT 116 cells with the wild-type p53 protein (0.069 µM). […] The p53 protein also interacts with the metabolic pathways that are associated with glucose transport[25] as well as small molecules. In light of the above-mentioned facts, we also determined the cytotoxicity of the GLUT inhibitor BAY-876, which is based on a quinoline scaffold. […] Furthermore, BAY-876 was also toxic to normal cells.

K562 = experiment: Monolayer antiproliferative MTS assay; assay type: cell-based, human; details: 2D model; for IC50: MTS, 72-h incubation
From the text: as §1, §2, §3

NHDF = experiment: Monolayer MTS cytotoxicity against normal cells; assay type: cell-based; details: NHDF, normal human dermal fibroblasts, 72-h incubation
From the text: as §1
as §2, with “times.” for “times. The results are presented as the half-maximal inhibitory concentration (IC50) values, which were estimated in comparison to untreated cells (control) and calculated using GraphPad Prism v.8.0 (USA).”
Additionally, the compounds were also tested for their cytotoxicity against normal cells – human dermal fibroblasts (NHDF).

Q: Which “p21 protein expression vs control” value (p21) does the source give for `O=[N+]([O-])c1ccc(/C=C/c2ccnc3ccccc23)o1` [Compound 13] here?
A: more than two-fold increase

Q: And the IC50 (U-251)?
A: 87 ± 7 nM

Q: And the “SI (selectivity index) U-251” value (U-251; relative to NHDF)?
A: 7.46

Q: And the IC50 (U-251; Homo sapiens, U-251, 72 h)?
A: < 100 nM

Q: What about the IC50 (K562) of the same compound?
A: 93 ± 9 nM

Q: What about the “SI (selectivity index) K562” value (K562; relative to NHDF) of the same compound?
A: 6.98

Q: And the IC50 (K562; Homo sapiens, K562, 72 h)?
A: < 100 nM

Q: And the IC50 (NHDF)?
A: 649 ± 60 nM
